Data reported in the supplement of paper PMC9938120.

Assays:
Experiment in all cases: drug sensitivity score (DSS3, normalised partial AUC of % inhibition dose-response) (DSS (score)); higher = more sensitive (stronger inhibition of viability); extreme values may be limits of the assay
Details in all cases: 72 h; library: FO5A; assay format: 2D, 384-well, CellTiter-Glo
FMOC04 = system: FMOC04 (patient-derived high-grade serous ovarian cancer cells)
Summary of the method: (§1)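 Cells were dispensed onto 384-well flat clear-bottom plates already holding compounds at five concentrations over a 10,000-fold range, using patient-derived ovarian cancer cells at passage under 10. Incubation lasted 72 h at 37 °C in 5% CO2, after which CellTiter-Glo viability data were processed in Breeze. Higher drug sensitivity scores, each a partial area under the percent-inhibition dose-response curve divided by the log of the upper asymptote, mean more sensitive cells.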

FMOC06 = system: FMOC06 (patient-derived mucinous ovarian cancer cells)
Summary of the method: as §1

FMOC14 = system: FMOC14 (patient-derived high-grade serous ovarian cancer cells)
Summary of the method: as §1

FMOC03 = system: FMOC03 (patient-derived mucinous ovarian cancer cells)
Summary of the method: as §1

FMOC27 = system: FMOC27 (patient-derived low-grade serous ovarian cancer cells)
Summary of the method: as §1

FMOC22 = system: FMOC22 (patient-derived mucinous ovarian cancer cells)
Summary of the method: as §1

FMOC02_2 = system: FMOC02_2 (patient-derived low-grade serous ovarian cancer cells)
Summary of the method: as §1

FMOC02_1 = system: FMOC02_1 (patient-derived low-grade serous ovarian cancer cells)
Summary of the method: as §1

FMOC28 = system: FMOC28 (patient-derived low-grade serous ovarian cancer cells)
Summary of the method: as §1

FMOC11 = system: FMOC11 (patient-derived high-grade serous ovarian cancer cells)
Summary of the method: as §1

FMOC09 = system: FMOC09 (patient-derived high-grade serous ovarian cancer cells)
Summary of the method: as §1

FMOC25_2 = system: FMOC25_2 (patient-derived low-grade serous ovarian cancer cells)
Summary of the method: as §1

FMOC24 = system: FMOC24 (patient-derived high-grade serous ovarian cancer cells)
Summary of the method: as §1

FMOC17 = system: FMOC17 (patient-derived low-grade serous ovarian cancer cells)
Summary of the method: as §1

FMOC02_3 = system: FMOC02_3 (patient-derived low-grade serous ovarian cancer cells)
Summary of the method: as §1

Structure (SMILES)	drug sensitivity score (FMOC04)	drug sensitivity score (FMOC06)	drug sensitivity score (FMOC14)	drug sensitivity score (FMOC03)	drug sensitivity score (FMOC27)	drug sensitivity score (FMOC22)	drug sensitivity score (FMOC02_2)	drug sensitivity score (FMOC02_1)	drug sensitivity score (FMOC28)	drug sensitivity score (FMOC11)	drug sensitivity score (FMOC09)	drug sensitivity score (FMOC25_2)	drug sensitivity score (FMOC24)	drug sensitivity score (FMOC17)	drug sensitivity score (FMOC02_3)
COCCOc1cnc2ccn([C@H](C)c3nnc4c(F)cc(-c5cnn(C)c5)cn34)c(=O)c2c1 [AMG-337]	0	0	0	0	0	0	0	0	3.4	0	0	0	0	0	0
CN(C)CCCOc1ccc(-c2ccc3ncc4c(c3c2)n(C2CCOCC2)c(=O)n4C)cn1 [AZD0156]	0.8	0.1	0	0.5	0	0.9	3.4	5.3	4.6	0	0.1	2.5	0	2.2	3.1
COc1cc2ncnc(Nc3cccc(Cl)c3F)c2cc1OC(=O)N1CCN(C)C[C@H]1C [AZD3759]	0.25	0.2	0.5	4.8	2.8	0	5.4	6.4	5	3.3	2.8	4.2	0	7	5.9
CC#CC(=O)N1CCC[C@H]1c1nc(-c2ccc(C(=O)Nc3ccccn3)cc2)c2c(N)nccn12 [Acalabrutinib]	0.6	2.6	0	0	0	0	0	0.3	0.5	0.2	0.8	0	0	2.2	0.7
COc1cc(C)c(/C=C/C(C)=C/C=C/C(C)=C/C(=O)O)c(C)c1C [Acitretin]	0	0.1	0	0	0	0	0.7	0.2	0.3	2.8	0	0	0	0	3.4
O=C(Nc1cc(Oc2cc(F)c(NC(=O)C3(C(=O)Nc4ccc(F)cc4)CC3)cc2F)ccn1)C1CC1 [Altiratinib]	1.05	6.9	5.1	5	5.1	4.3	5.2	4.9	3.3	2.4	1.7	9.1	8.2	3	5.1
CNC(=O)c1ccc(N2C(=S)N(c3cnc(C#N)c(C(F)(F)F)c3)C(=O)C23CCC3)cc1F [Apalutamide]	0	0	0	0	0	0	0	0	3.4	0	0	0	0.45	0	0
O=C(Nc1ccc(OC(F)(F)Cl)cc1)c1cnc(N2CC[C@@H](O)C2)c(-c2cc[nH]n2)c1 [Asciminib]	0	1	0	0	0	0	1	0	0	0	0	0.1	0.9	0	0
CC1(C)C(C(=O)Nc2ccc(S(=O)(=O)c3ccc(NC(=O)C4C(C)(C)C4(C)C)cc3)cc2)C1(C)C [BRD7116]	0	0.8	0	0.5	0	0	0.1	0	1	2.2	0	0	1.5	1.4	3.7
COc1cc(N2CCC(N3CCN(C)CC3)CC2)ccc1Nc1ncc(Cl)c(Nc2ccccc2P(C)(C)=O)n1 [Brigatinib]	1.75	4.7	1.7	0.9	1.7	0.5	4.3	4.4	4.8	1	3.8	6.4	2.8	2.9	3.7
Cc1nc2cccc(N)c2c(=O)n1C1CCC(=O)NC1=O (stereo not given) [CC122]	0	0	0.2	0	0.1	0	0	0	2.5	0	0	0	0	0.5	0.4
COc1cc(C)[nH]c(=O)c1CNC(=O)c1c(C)n([C@H](C)C2CCOCC2)c2ccccc12 [CPI-360]	0.05	0	0	0	0	0	0.1	0	3.4	0	0	0	0	0	0
CNC(=O)c1ccc(-c2cnc3ncc(Cc4ccc5ncccc5c4)n3n2)cc1F [Capmatinib]	0	0	0.1	0	0.5	0	0	0	0	0	0	0	0	0	0
CC[C@@](C)(Nc1ccnc(-c2c[nH]c3ncccc23)n1)C(=O)NCC(F)(F)F [Decernotinib]	0	2.6	0	0	0	0	1.7	3.3	0	0	0	0	0	0	0.4
CC(C)(O)CNc1nc(Nc2ccnc(C(F)(F)F)c2)nc(-c2cccc(C(F)(F)F)n2)n1 [Enasidenib]	0	0	0	1.4	0	0	2.5	1.5	4.4	0	0	1.7	0	2.3	0
C[C@@H]1CN(C(=O)c2ccc(NC(=O)c3cc(O[C@H](C)c4c(Cl)ccc(F)c4Cl)c(N)nn3)cc2)C[C@H](C)N1 [Ensartinib]	0.05	3	0	0	0	0.1	0.4	4.3	2.2	0.2	1.1	0.8	0.7	1.5	1.6
CN1CCN(c2ccc(C(=O)Nc3n[nH]c4ccc(Cc5cc(F)cc(F)c5)cc34)c(NC3CCOCC3)c2)CC1 [Entrectinib]	0.1	1.4	0	0	0	0	1.5	0.3	2.2	1.1	0.3	2.7	0	1.9	2.7
COc1cc(OC)cc(N(CCNC(C)C)c2ccc3ncc(-c4cnn(C)c4)nc3c2)c1 [Erdafitinib]	0	0	0	0	0	0	0	0	0	0.7	0	0.4	1.1	0.3	2.1
C[C@H]1CN(C2COC2)CCN1c1ccc(Nc2cc(-c3ccnc(N4CCn5c(cc6c5CC(C)(C)C6)C4=O)c3CO)cn(C)c2=O)nc1 [GDC-0853]	0	0	0	0	0	0	0	0	0.4	0	0	0	0	0	0
O[C@H](C[C@H]1c2c(F)cccc2-c2cncn21)[C@H]1CC[C@H](O)CC1 [GDC-0919]	0	1	0.8	0.1	2	0.4	3.6	0.2	2.2	1.7	0.3	0.1	0.55	0.8	2.1
CCc1nc(C(N)=O)c(Nc2ccc(N3CCC(N4CCN(C)CC4)CC3)c(OC)c2)nc1NC1CCOCC1 [Gilteritinib]	1.1	4.5	0	0.1	0	0.1	3.2	4.2	0.5	1.9	1.7	4.4	0.1	1.7	4.5
COCCNCc1ccc(-c2cc3nccc(Oc4ccc(NC(=S)NC(=O)Cc5ccc(F)cc5)cc4F)c3s2)nc1 [Glesatinib]	0	0	0.2	0	0	0	0	0	2.9	0	0	0	0.6	0	0
CCN1CCN(c2ccc(Nc3cc(N(C)C(=O)Nc4c(Cl)c(OC)cc(OC)c4Cl)ncn3)cc2)CC1 [Infigratinib]	0	0	0	0	0	0	0	0	0.5	0	0	0	0.05	0	0
N#Cc1ccnc(N2C(=O)CC[C@H]2C(=O)N(c2cncc(F)c2)[C@H](C(=O)NC2CC(F)(F)C2)c2ccccc2Cl)c1 [Ivosidenib]	0	0	0	0	0	0	0	0.2	2.6	0	0	0	0.2	0.3	0
